Test systems include A498 renal; HL-60(TB) leukemia; K-562 leukemia; OVCAR-3 ovarian; RPMI-8226 leukemia; SNB-19 CNS; SW-620 colon; UO-31 renal; HS 578T breast; HCC-2998 colon.
Holding throughout (test): NCI tumour cell line growth inhibition, 48 h

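48-hour exposure; five concentrations; linearly interpolated endpoints. Here, GI50 denotes the concentration required for 50% inhibition of growth. TGI: total growth inhibition.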 Where only a bound is given, the exact number is not on record here.

Turning to `Cc1cc(N(CCC#N)CCC#N)ccc1N=Nc1cccc(Cl)c1`, the TGI with A498 renal, in the assay on HL-60(TB) leukemia, in the assay on K-562 leukemia, in the assay on OVCAR-3 ovarian, in the assay with RPMI-8226 leukemia and in the assay with SNB-19 CNS was greater than 100 µM in each case. Further, the TGI with SW-620 colon and with UO-31 renal was greater than 100 µM throughout.
`O=S(=O)(O)/C(=C\c1ccccc1)c1ccccc1` (tested in a mixture with another compound): the TGI in the assay with A498 renal, with HL-60(TB) leukemia, with HS 578T breast, in the assay on K-562 leukemia, in the assay on OVCAR-3 ovarian and in the assay with RPMI-8226 leukemia was greater than 100 µM in each case. The TGI with SNB-19 CNS, in the assay with SW-620 colon and in the assay on UO-31 renal was greater than 100 µM in each case.
Regarding `C=C1CC2(CCCC3(CC(=C)C(=O)O3)C2(C)C)OC1=O` (stereo not given), the TGI in the assay with A498 renal stood at 41.9 µM; in the assay on HL-60(TB) leukemia, 5.65 µM; in the assay with HS 578T breast it was 58 µM; with K-562 leukemia, 13.7 µM; in the assay on OVCAR-3 ovarian, 6.78 µM; in the assay on RPMI-8226 leukemia, 3.57 µM. Further, the TGI is 32.9 µM with SNB-19 CNS, 4.26 µM in the assay on SW-620 colon and 9.53 µM in the assay on UO-31 renal.
As to `C#C[C@H](CCCC)OC(=O)N[C@H](C)c1ccccc1`, the TGI is 40.7 µM in the assay on HL-60(TB) leukemia; greater than 100 µM in the assay on K-562 leukemia; greater than 100 µM in the assay with OVCAR-3 ovarian; 69.4 µM in the assay on RPMI-8226 leukemia; greater than 100 µM in the assay with SNB-19 CNS; greater than 100 µM in the assay on SW-620 colon. For the same compound, the TGI in the assay on UO-31 renal was 75.8 µM.
With `BrC1=CC=C2NCCCCCCN=C3C=CC(Br)=CC=C3NCCCCCCN=C2C=C1`, the TGI in the assay with A498 renal, with HCC-2998 colon, with HL-60(TB) leukemia, in the assay on K-562 leukemia, in the assay with OVCAR-3 ovarian and with RPMI-8226 leukemia was greater than 25.5 µM in each case. Besides, the TGI in the assay with SNB-19 CNS, in the assay on SW-620 colon and with UO-31 renal was greater than 25.5 µM throughout.
`Cc1cccc(C)c1NC(=O)CCC(=O)NC(N)=S`: the TGI in the assay on A498 renal, in the assay on HCC-2998 colon, with HL-60(TB) leukemia, in the assay on K-562 leukemia, with OVCAR-3 ovarian and with RPMI-8226 leukemia was greater than 100 µM each time. Moreover, the TGI with SNB-19 CNS, with SW-620 colon and in the assay with UO-31 renal was greater than 100 µM throughout.
Take `Cn1c2ccccc2c(=O)c2c([N+](=O)[O-])ccc(NCCN)c21`: the TGI in the assay on A498 renal was determined as 31 µM; in the assay on HCC-2998 colon, 21.8 µM; in the assay on HL-60(TB) leukemia, 22.9 µM; in the assay on OVCAR-3 ovarian, 27.2 µM; in the assay with SNB-19 CNS, 27.8 µM; in the assay with SW-620 colon, 16.6 µM. In addition, the TGI in the assay with UO-31 renal turned out to be 18.8 µM.
For `COc1cc(NCC2COc3c(ccc(OC)c3OC)C2=O)c([N+](=O)[O-])cc1OC` (stereo not given), the TGI in the assay on A498 renal, with HL-60(TB) leukemia, in the assay with HS 578T breast, with K-562 leukemia, with OVCAR-3 ovarian and with RPMI-8226 leukemia was greater than 100 µM in each case. Further, the TGI in the assay with SNB-19 CNS, in the assay on SW-620 colon and in the assay on UO-31 renal was greater than 100 µM each time.
For the compound `Cc1nc2cc(Nc3nc(Nc4ccc(F)cc4)nc(N4CCN(C)CC4)n3)ccc2n1Cc1ccccc1`, the GI50 in the assay with A498 renal is 1.56 µM; in the assay with HL-60(TB) leukemia, 1.34 µM; with K-562 leukemia, 1.34 µM; with OVCAR-3 ovarian it was 1.84 µM; in the assay with RPMI-8226 leukemia, 1.75 µM; in the assay on SNB-19 CNS, 2.47 µM. Also, the GI50 in the assay on SW-620 colon and with UO-31 renal was 1.79 µM throughout. In addition, the TGI in the assay on A498 renal amounted to 3.19 µM; with HL-60(TB) leukemia it was 3.36 µM; in the assay with K-562 leukemia, 5.29 µM; in the assay with OVCAR-3 ovarian it was 3.51 µM; in the assay with RPMI-8226 leukemia, 4.28 µM; in the assay with SNB-19 CNS it was 7.42 µM. Besides, the values for the TGI with SW-620 colon and in the assay with UO-31 renal were 3.95 µM and 3.82 µM, respectively.
`CCCCCC(O)(CCCCC)CCCCCCCCC1=C(O)c2[nH]c(=O)ccc2C(=O)C1=O`: the TGI in the assay on A498 renal was determined as 24.6 µM; in the assay on HCC-2998 colon it was 27.8 µM; with HL-60(TB) leukemia it was 23.6 µM; in the assay with K-562 leukemia it was 26.7 µM; in the assay on OVCAR-3 ovarian it was 16.2 µM; with RPMI-8226 leukemia, 25.3 µM. Further, the TGI was 18.2 µM with SNB-19 CNS, 20.6 µM in the assay on SW-620 colon and 26.1 µM in the assay with UO-31 renal.
`c1cc[c]([Sn]([S]c2cccc3cccnc23)([S]c2cccc3cccnc23)[c]2ccccc2)cc1`: the GI50 was 0.0359 µM with A498 renal; 0.17 µM in the assay on HCC-2998 colon; 0.172 µM with HL-60(TB) leukemia; 0.165 µM in the assay with OVCAR-3 ovarian; 0.158 µM in the assay with RPMI-8226 leukemia; 0.438 µM in the assay with SNB-19 CNS. The GI50 was 0.14 µM with SW-620 colon and 0.182 µM in the assay with UO-31 renal. The TGI with A498 renal amounted to 0.202 µM; with HCC-2998 colon, 0.352 µM; with HL-60(TB) leukemia it was 0.563 µM; in the assay with OVCAR-3 ovarian, 0.361 µM; in the assay with RPMI-8226 leukemia, 0.465 µM; in the assay on SNB-19 CNS, 1.66 µM. Moreover, the TGI in the assay on SW-620 colon came out at 0.365 µM; with UO-31 renal, 0.514 µM.
On to `N#CC(C(=N/NC(N)=S)/C(=N/NC(N)=S)C(C#N)c1ccc(Cl)cc1)c1ccc(Cl)cc1` (stereo not given), for which the TGI with A498 renal, with HCC-2998 colon, in the assay on K-562 leukemia, in the assay on OVCAR-3 ovarian, in the assay with SNB-19 CNS and with SW-620 colon was greater than 100 µM in each case. This compound also came in with a TGI in the assay on UO-31 renal greater than 100 µM.
Take `CCCCCCCCCCCC(O)=C1C(=O)CC(O)CC1=O` (stereo not given): the TGI was greater than 100 µM with HCC-2998 colon; 58.7 µM in the assay on HL-60(TB) leukemia; greater than 100 µM in the assay on K-562 leukemia; greater than 100 µM in the assay on OVCAR-3 ovarian; greater than 100 µM in the assay with RPMI-8226 leukemia; greater than 100 µM in the assay on SNB-19 CNS. Further, the TGI in the assay with SW-620 colon and in the assay with UO-31 renal was greater than 100 µM throughout.
Regarding `CC1(C)CC(=O)C(=[N+]=[N-])C(=O)C1`, the TGI in the assay with HCC-2998 colon, in the assay on HL-60(TB) leukemia, in the assay with K-562 leukemia, in the assay with OVCAR-3 ovarian, in the assay on RPMI-8226 leukemia and in the assay with SNB-19 CNS was greater than 100 µM throughout. In addition, the TGI with SW-620 colon was greater than 100 µM.

These data come from PubChem BioAssay (NCI).
